{"source": "paper PMC6226112", "about": "(Clinical and Translational Science, 2018)", "key": {"[1]": {"settings": "human, in vivo"}, "[2]": {"settings": "steady state; cited from earlier work"}, "[3]": {"assay": "clinical", "settings": "human, in vivo"}, "[4]": {"settings": "GZR alone 200 mg once daily, ref historical database, cited from earlier work"}, "[5]": {"assay": "Trial 2 safety and tolerability"}, "[6]": {"assay": "clinical", "settings": "both, human, in vivo"}, "[7]": {"assay": "Trial 1 safety and tolerability", "settings": "for Number of AEs considered related to the drug(s): 73 drug-related of 78 AEs"}, "[8]": {"settings": "both, human, in vivo"}}, "note": "Read-outs that look alike come from different tables or passages of the source.", "data": [{"smiles": "C=C[C@@H]1C[C@]1(NC(=O)[C@@H]1C[C@@H]2CN1C(=O)[C@H](C(C)(C)C)NC(=O)O[C@@H]1C[C@H]1CCCCCc1nc3ccc(OC)cc3nc1O2)C(=O)NS(=O)(=O)C1CC1", "note": "[GZR, grazoprevir]", "values": [{"measurement": "C24, GM", "setting": "[1]", "value": 13.5, "unit": "nM"}, {"measurement": "GMRs for AUC0-24, Cmax, and C24 (range over the three parameters)", "setting": "[1]", "value": "0.80–0.97"}, {"measurement": "Exposure in HCV-infected people compared with healthy people", "setting": "[2]", "value": "~2", "unit": "fold"}, {"measurement": "AUC(0-t)", "setting": "[3]", "value": 2.13, "unit": "µM·h"}, {"measurement": "Cmax", "setting": "[3]", "value": 473, "unit": "nM"}, {"measurement": "Tmax", "setting": "[3]", "value": 4, "unit": "h"}, {"measurement": "C24, GM", "setting": "[4]", "value": 13.9, "unit": "nM"}, {"measurement": "Cmax", "setting": "[4]; read-out: Cmax, GM", "value": 583, "unit": "nM"}, {"measurement": "Tolerability of coadministration with BUP/NAL", "setting": "[5]", "value": "generally well tolerated"}]}, {"smiles": "C=CCN1CC[C@]23c4c5ccc(O)c4O[C@H]2C(=O)CC[C@@]3(O)[C@H]1C5", "note": "[NAL, naloxone]", "values": [{"measurement": "Apparent terminal T½, GM", "setting": "[1]", "value": 5.20, "unit": "h"}, {"measurement": "Cmax/D, GM", "setting": "[1]", "value": 0.149, "unit": "ng/mL/mg"}, {"measurement": "AUC(0-inf)", "setting": "[6]", "value": 0.416, "unit": "ng·h/mL"}, {"measurement": "Cmax", "setting": "[6]", "value": 0.139, "unit": "ng/mL"}, {"measurement": "Tmax", "setting": "[6]", "value": 0.98, "unit": "h"}, {"measurement": "AUC(0-inf)", "setting": "[6]; 2 mg", "value": 0.47, "unit": "ng·h/mL"}, {"measurement": "Cmax", "setting": "[6]; 2 mg", "value": 0.165, "unit": "ng/mL"}, {"measurement": "Tmax", "setting": "[3]", "value": 1.24, "unit": "h"}]}, {"smiles": "O=C1CC[C@@]2(O)[C@H]3Cc4ccc(O)c5c4[C@@]2(CCN3CC2CC2)[C@H]1O5", "note": "[NTX, naltrexone]", "values": [{"measurement": "Number of AEs considered related to the drug(s)", "setting": "[7]", "value": "three"}]}, {"smiles": "COC(=O)N[C@H](C(=O)N1CCC[C@H]1c1nc(-c2ccc3c(c2)O[C@@H](c2ccccc2)n2c-3cc3cc(-c4c[nH]c([C@@H]5CCCN5C(=O)[C@@H](NC(=O)OC)C(C)C)n4)ccc32)c[nH]1)C(C)C", "note": "[EBR, elbasvir]", "values": [{"measurement": "Tolerability of coadministration with BUP/NAL", "setting": "[7]", "value": "generally well tolerated"}, {"measurement": "Number of AEs considered related to the drug(s)", "setting": "[7]", "value": 4}, {"measurement": "AUC(0-inf)", "setting": "[6]", "value": 2.55, "unit": "µM·h"}, {"measurement": "Tmax", "setting": "[6]", "value": 3.01, "unit": "h"}, {"measurement": "AUC(0-inf)", "setting": "[6]; po, 50 mg", "value": 2.08, "unit": "µM·h"}, {"measurement": "GMRs for AUC0-∞, Cmax, and C24 (range over the three parameters)", "setting": "[8]", "value": "1.13–1.22"}]}]}
